15 molecules from ChEMBL document CHEMBL2401685 (Bioorg Med Chem Lett, 2013) can be followed below.

Structures are written as SMILES. Activity calls are given as the source filed them. The calls are words filed in the database; no cut-off is given here. Where only a bound is given, the exact number is not on record here.

In data set [1] the target is T1, 11-beta-hydroxysteroid dehydrogenase 1 (Homo sapiens, UniProt P28845). Put plainly: Ratio of curcumin IC50 to compound IC50 for human 11beta-HSD1 transfected in CHOP cells. The data set is classed as cell-based.
Target sequence in this assay (P28845 whole entry, looked up): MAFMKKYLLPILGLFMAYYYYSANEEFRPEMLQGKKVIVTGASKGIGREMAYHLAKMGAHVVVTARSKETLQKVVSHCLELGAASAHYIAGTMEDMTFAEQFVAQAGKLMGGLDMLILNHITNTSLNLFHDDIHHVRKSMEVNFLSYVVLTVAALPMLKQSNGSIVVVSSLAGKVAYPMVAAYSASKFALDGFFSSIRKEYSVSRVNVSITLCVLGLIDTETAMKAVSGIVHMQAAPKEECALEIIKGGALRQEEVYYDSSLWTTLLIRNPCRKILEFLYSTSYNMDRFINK
Data set [2] concerns the target T1, 11-beta-hydroxysteroid dehydrogenase 1. The data set can be described thus: Inhibition of human 11beta-HSD1 transfected in CHOP cells. The data set is classed as cell-based.
Target sequence in this assay (P28845 whole entry): as the sequence (P28845 whole entry, looked up) above
Data set [3] deals with T2, 11-beta-hydroxysteroid dehydrogenase type 2 (Homo sapiens) (UniProt P80365).
T2 sequence (whole entry): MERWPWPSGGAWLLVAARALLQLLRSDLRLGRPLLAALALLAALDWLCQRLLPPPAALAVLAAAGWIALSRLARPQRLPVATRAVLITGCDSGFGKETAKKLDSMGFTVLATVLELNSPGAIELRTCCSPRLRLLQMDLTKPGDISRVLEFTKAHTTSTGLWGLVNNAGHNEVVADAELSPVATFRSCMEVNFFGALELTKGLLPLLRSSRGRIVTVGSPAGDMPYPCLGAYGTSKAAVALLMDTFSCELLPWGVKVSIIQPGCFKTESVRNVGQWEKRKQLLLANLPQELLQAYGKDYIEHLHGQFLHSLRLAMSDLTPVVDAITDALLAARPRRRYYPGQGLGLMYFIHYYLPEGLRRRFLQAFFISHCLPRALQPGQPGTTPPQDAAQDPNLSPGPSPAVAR
Put plainly: (§1) Inhibition of 11beta-HSD2 in human kidney microsomes using [3H]-cortisol as substrate assessed as formation of cortisone at 100 uM after 30 mins by radiometric analysis relative to control. The following applies: Microsome.

The target of data set [4] is T3, 11-beta-hydroxysteroid dehydrogenase 1 (Rattus norvegicus, UniProt P16232). The data set can be described thus: Inhibition of 11beta-HSD1 in Sprague-Dawley rat leydig cells […].
Data set [5] has as its target T3, 11-beta-hydroxysteroid dehydrogenase 1. Put plainly: Inhibition of 11beta-HSD1 in rat testis microsomes using [3H]-11-DHC as substrate assessed as formation of CORT after 60 to 90 mins by radiometric analysis. More on the design: species or system Microsome.
In data set [6] the target is T4, 11-beta-hydroxysteroid dehydrogenase type 2 (Rattus norvegicus) (UniProt P50233).
T4 sequence (whole entry): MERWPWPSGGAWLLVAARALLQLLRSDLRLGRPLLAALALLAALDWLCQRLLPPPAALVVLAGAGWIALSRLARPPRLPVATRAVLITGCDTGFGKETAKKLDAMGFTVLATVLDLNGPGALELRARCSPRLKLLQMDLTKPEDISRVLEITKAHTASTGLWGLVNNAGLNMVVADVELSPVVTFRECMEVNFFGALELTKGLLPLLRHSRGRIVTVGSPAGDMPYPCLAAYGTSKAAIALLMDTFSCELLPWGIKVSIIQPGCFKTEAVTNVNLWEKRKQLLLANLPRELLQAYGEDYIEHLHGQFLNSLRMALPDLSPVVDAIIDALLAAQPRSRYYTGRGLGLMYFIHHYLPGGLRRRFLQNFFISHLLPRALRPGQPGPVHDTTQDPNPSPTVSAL
Put plainly: Inhibition of 11beta-HSD2 in rat kidney microsomes using [3H]-CORT as substrate assessed as formation of 11-DHC at 100 uM after 30 mins by radiometric analysis relative to control. Conditions: Microsome.

For data set [7], the target named is T1, 11-beta-hydroxysteroid dehydrogenase 1. Put plainly: Inhibition of 11beta-HSD1 in human liver microsomes using [3H]-cortisone as substrate assessed as formation of cortisol after 60 to 90 mins by radiometric analysis. More on the design: species or system Microsome.
Target sequence in this assay (P28845 whole entry): as the sequence (P28845 whole entry, looked up) above
For data set [8] the target is unchanged. The data set can be described thus: Inhibition of 11beta-HSD1 in human liver microsomes using [3H]-cortisone as substrate assessed as formation of cortisol at 100 uM after 60 to 90 mins by radiometric analysis relative to control. The following applies: Microsome.
Target sequence in this assay (P28845 whole entry, looked up): as the sequence (P28845 whole entry, looked up) above
In data set [9] the target is 11-beta-hydroxysteroid dehydrogenase 1 (Rattus norvegicus) (UniProt P16232). Put plainly: Inhibition of 11beta-HSD1 in Sprague-Dawley rat leydig cells […] relative to control. Conditions: 100 uM.
Data set [10] concerns the target T1, 11-beta-hydroxysteroid dehydrogenase 1. The data set can be described thus: Inhibition of human 11beta-HSD1 transfected in CHOP cells at 100 uM relative to control. It counts as cell-based.
Target sequence in this assay (P28845 whole entry, looked up): as the sequence (P28845 whole entry, looked up) above
Data set [11] has as its system J774.A1. The data set can be described thus: (§2) Antiinflammatory activity in mouse J774A1 cells assessed as LPS-induced TNFalpha production at 10 uM incubated 2 hrs prior to LPS challenge measured after 24 hrs by ELISA relative to vehicle-treated control. The data set is classed as functional.
Data set [12] concerns the target 11-beta-hydroxysteroid dehydrogenase 1 (Rattus norvegicus) (UniProt P16232). The data set can be described thus: Inhibition of 11beta-HSD1 in rat testis microsomes using [3H]-11-DHC as substrate assessed as formation of CORT at 100 uM after 60 to 90 mins by radiometric analysis relative to control. The following applies: Microsome.
Data set [13] is described as follows: as §2. It counts as functional. Conditions: J774.A1.
The nature of data set [14]: Cytotoxicity against rat leydig cells. It counts as cell-based.
Data set [15] is described as follows: Cytotoxicity against CHOp cells. The data set is classed as cell-based, Cricetulus griseus. Conditions: chinese hamster.
For data set [16], the target named is T5, 11-beta-hydroxysteroid dehydrogenase type 2 (Homo sapiens, UniProt P80365).
T5 sequence (P80365 whole entry): T2 sequence (whole entry)
The description is as §1. More on the design: species or system Microsome.

Data set [17] deals with T1, 11-beta-hydroxysteroid dehydrogenase 1. Put plainly: Competitive inhibition of 11beta-HSD1 in human liver microsomes at 1 to 10 uM by Lineweaver-burk plot analysis in presence of cortisone. The following applies: Microsome.
Target sequence in this assay (P28845 whole entry, looked up): as the sequence (P28845 whole entry, looked up) above

Chain of 11-beta-hydroxysteroid dehydrogenase 1 (Rattus norvegicus) (P16232 whole entry, looked up): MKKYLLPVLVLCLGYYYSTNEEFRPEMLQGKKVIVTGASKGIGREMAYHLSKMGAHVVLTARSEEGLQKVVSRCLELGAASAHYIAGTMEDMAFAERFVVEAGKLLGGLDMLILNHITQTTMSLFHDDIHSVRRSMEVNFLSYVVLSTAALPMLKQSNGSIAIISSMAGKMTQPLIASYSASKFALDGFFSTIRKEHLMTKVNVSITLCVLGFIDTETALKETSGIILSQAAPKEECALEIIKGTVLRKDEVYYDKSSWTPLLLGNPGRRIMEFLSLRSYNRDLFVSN
T3 sequence (P16232 whole entry): as the sequence (P16232 whole entry, looked up) above

With `O=C1/C(=C/c2ccccc2Br)CC/C1=C\c1ccccc1Br`, the Ratio IC50 in data set [1] was 9. Also, the IC50 was 144 nM in data set [2], 1450 nM in data set [4], 2880 nM in data set [5] and 6110 nM in [7]. The inhibition in [3] amounted to 36%; in [6] it was 22%.
For the molecule `COc1cc(/C=C2\CCC/C(=C\c3ccc(OC4CCCCO4)c(OC)c3)C2=O)ccc1OC1CCCCO1` (stereo not drawn), the inhibition in data set [8] stood at 37%; in [9], 8%; in data set [3], 6%; in data set [10] it was 40%; in [6], 14%. For the same molecule, the IC50 in [5] amounted to 65400 nM.
For `O=C(/C=C/c1ccc(F)cc1)/C=C/c1ccc(F)cc1`, the Ratio IC50 in [1] came out at 9. The inhibition in data set [8] stood at 37%; in [3], 26%; in [12], 2%; in data set [6], 22%. Further, the inhibition entry in data set [11] is “inactive”. The IC50 in data set [2] is 507 nM; in data set [4], 229 nM.
For the molecule `O=C1/C(=C/c2ccccc2Br)CCC/C1=C\c1ccccc1Br`, the Ratio IC50 in data set [1] turned out to be 9. In addition, in data set [13], the inhibition at 10 µM is above 50%. The IC50 stood at 346 nM in data set [2], 148 nM in data set [4], 218 nM in data set [5] and 1110 nM in data set [7]. For the same molecule, the inhibition in data set [3] amounted to 33%; in data set [6], 39%. In addition, the Activity entry in data set [14] and in data set [15] was “Non-toxic” in each case.
Regarding `CCOc1ccc(/C=C2\CC/C(=C\c3ccc(OCC)cc3)C2=O)cc1`, the inhibition in data set [8] is 14%; in [9], 27%; in data set [3], 6%; in [10], 14%; in data set [12], 0%; in [6], 10%. Also, the inhibition at 10 µM in data set [13] was below 50%.
In the case of `O=C1/C(=C/c2ccc(F)cc2)CC/C1=C\c1ccc(F)cc1`, the Ratio IC50 in data set [1] was 9. Moreover, in [11], the inhibition entry is “inactive”. The IC50 turned out to be 310 nM in data set [2], 3470 nM in data set [4], 22000 nM in data set [5] and 17400 nM in [7]. For the same molecule, the inhibition in [3] was determined as 26%; in data set [6], 9%.
`O=C1/C(=C/c2ccc(O)cc2)CCC/C1=C\c1ccc(O)cc1`: the Ratio IC50 in data set [1] amounted to 5. For the same molecule, the IC50 in [2] came out at 195 nM; in data set [4], 633 nM; in [7], 1940 nM. Also, the inhibition was found to be 0% in data set [3], 63% in [12] and 24% in data set [6].
For `COc1cc(/C=C/C(=O)/C=C/c2ccc(O)c(OC)c2)ccc1O`, in data set [1], the Ratio IC50 turned out to be 5. Moreover, the IC50 in data set [2] was 257 nM; in data set [4], 292 nM; in data set [5] it was 16100 nM; in [7], 70900 nM. Moreover, the inhibition was 39% in data set [3] and 35% in [6].
As for `COc1cc(/C=C/C(=O)CC(=O)/C=C/c2ccc(O)c(OC)c2)ccc1O` [CURCUMIN], the inhibition result in data set [11] is “inactive”. For the same molecule, the IC50 stood at 4500 nM in data set [2]; 15700 nM in data set [16]; 3920 nM in data set [4]; 4120 nM in data set [5]; 16000 nM in [7].
With `O=C(/C=C/c1ccc(O)cc1)/C=C/c1ccc(O)cc1`, the Ratio IC50 in [1] came to 5. Besides, the IC50 in data set [2] worked out at 832 nM; in data set [4], 986 nM; in data set [7] it was 4420 nM. Besides, the inhibition in [3] was 44%; in data set [12], 41%; in [6], 7%.
Consider `O=C1/C(=C/c2ccc(F)cc2)CCC/C1=C\c1ccc(F)cc1`, for which, in [1], the Ratio IC50 is 9. Also, the inhibition result in data set [11] was “inactive”. Also, the IC50 in data set [2] amounted to 263 nM; in [4], 1110 nM; in data set [5] it was 13500 nM; in [7], 2970 nM. Further, the inhibition worked out at 24% in data set [3] and 16% in data set [6].
On to `O=C(/C=C/c1ccccc1Br)/C=C/c1ccccc1Br`, for which, in data set [1], the Ratio IC50 amounted to 9. Moreover, the inhibition at 10 µM in data set [13] is above 50%. Besides, the IC50 was found to be 115 nM in data set [2], 129 nM in data set [4], 288 nM in [5] and 529 nM in data set [7]. For the same molecule, the values for the inhibition in data set [3] and in data set [6] were 53% and 39%, respectively. The Activity entry in [14] and in data set [15] was “Non-toxic” throughout. The inhibition result in data set [17] is “Active”.
As for `O=C1/C(=C/c2cccc(Br)c2)CC/C1=C\c1cccc(Br)c1`, in data set [1], the Ratio IC50 was 9. Also, the IC50 in [2] turned out to be 97 nM; in data set [4] it was 1150 nM; in [5], 599 nM; in data set [7], 3510 nM. Moreover, the results for the inhibition in [3] and in [6] were 23% and 3%, respectively.
On to `O=C(/C=C/c1ccc(OC2CCCCO2)cc1)/C=C/c1ccc(OC2CCCCO2)cc1` (stereo not drawn), for which the inhibition in data set [8] stood at 36%; in data set [3] it was 13%; in data set [10] it was 54%; in data set [12], 13%; in [6], 24%. In addition, the inhibition entry in data set [11] is “inactive”. In addition, in data set [4], the IC50 worked out at 17200 nM.
For `O=C1/C(=C/c2ccc(OC3CCCCO3)cc2)CCC/C1=C\c1ccc(OC2CCCCO2)cc1` (stereo not drawn), the inhibition was determined as 14% in data set [8]; 28% in [9]; 17% in [3]; 28% in data set [10]; 45% in data set [12]; 48% in [6]. The inhibition result in data set [11] was “inactive”.
